Test results taken from a melting point compilation (Tetko et al.).

Structure (SMILES) | melting point [°C]
Nc1ccc(F)c(N2CCCC2=O)c1 | 122 to 124
O=C1CCOc2c(Cl)cc(Cl)cc21 | 86 to 88
O=C(NC1CCCC1)c1cnc(Cl)c(Cl)c1 | 159 to 161
Cc1ccc(S(=O)(=O)NCCC(=O)O)cc1 | 148 to 150
COC(=O)Cc1csc(N)n1 | 123 to 125
N#Cc1cccc(CS(=O)(=O)NCC(=O)O)c1 | 158 to 160
CN(C)C(=O)c1ccc(Cl)c(S(=O)(=O)Cl)c1 | 106 to 108
CC(C)c1cnc(S)n1C(C)C | 177 to 179
CC(C)CC(=O)NCCc1ccc(S(N)(=O)=O)s1 | 113 to 115
CC(=O)N(c1nc(C=O)cs1)C1CC1 | 112 to 114
CN(c1ccc(C(=O)O)cc1)C1CCCCC1 | 148 to 150
COC(=O)c1cc(S(=O)(=O)Cl)c(C(=O)OC)s1 | 129 to 131
COc1ccccc1C(CN)NC(=O)OC(C)(C)C (centres undefined) | 145 to 147
NC(=S)N1CCS(=O)(=O)CC1 | 233 to 235
O=C(O)C1CCSCC1 | 109 to 111
COC(=O)c1cc(CCl)c(C)s1 | 54 to 56
CC(C)c1ccc(/C=C(/C(=O)O)c2cccs2)cc1 | 250 to 252
O=C(O)c1c[nH]cc1-c1ccc2c(c1)OCCO2 | 196 to 198
O=C(O)c1ccc(Oc2ccc(C(F)(F)F)cn2)cc1 | 218 to 220
CC(C)(C)c1cc([N+](=O)[O-])c(O)c(C(C)(C)C)c1 | 58 to 60
CS(=O)(=O)N1CCNC(=O)C1 | 164 to 166
N#Cc1ccc(N=C=O)cc1 | 101 to 104
COC(=O)c1ccc(S(=O)(=O)Cl)cc1 | 65 to 70
CN(C)c1nc(Cl)c(C=O)s1 | 109 to 111
Cc1cn2c(CC(=O)O)csc2n1 | 211 to 213
O=C(O)C1CSC(c2cccc(Br)c2)N1 (centres undefined) | 165 to 167
O=Cc1ccc(N2CCNCC2)s1 | 59 to 63

Structure (SMILES) | melting point [°C]
O=C(O)C1CSCN1C(=O)C1CCC1 (centres undefined) | 115 to 117
O=C1CC(NC(=O)C(F)(F)F)c2ccsc21 (centres undefined) | 133 to 135
CC(C)(C)OC(=O)NC(CO)CO | 83 to 85
CCOc1ccc(C(C)=O)cc1CCl | 80 to 82
COc1ccccc1C(=O)CC#N | 71 to 75
CN(CC(=O)O)C(=O)C1CC1 | 112 to 114
O=C1OCCN1c1ccc(Cl)c([N+](=O)[O-])c1 | 163 to 165
NC(=S)N1CCCCCC1 | 151 to 153
O=C(CCl)c1cc2c3c(c1)CC(=O)N3CCC2 | 159 to 161
CC1(C)CNCCS1(=O)=O | 46 to 48
FC(F)n1ccnc1Cn1cc(Br)cn1 | 79 to 81
CN(C)c1ccc(C(N)=NO)cc1 | 169 to 171
CC(C)c1nnc(S)n1C1CC1 | 146 to 148
Cc1cc2cc(Cl)cc(Cl)c2[nH]1 | 49 to 51
COc1ccc(NC#N)cc1Cl | 95 to 97
Cc1noc(C)c1S(=O)(=O)NCC(=O)O | 113 to 115
O=C(O)CCC(=O)N1CCOCC1 | 61 to 65
Cc1ccc(S(=O)(=O)Cl)cc1C(=O)O | 149 to 151
O=C(O)C1CCCN(c2nccs2)C1 (centres undefined) | 121 to 123
Cc1nn(C)c(-n2cncn2)c1N | 96 to 98
Nc1cccc(CS(=O)C2CCOCC2)c1 (centres undefined) | 125 to 127
O=C(O)c1nc2ncc(Br)cn2n1 | 199 to 201
CC(C)(c1cc(N)on1)S(C)(=O)=O | 179 to 181
CCOc1ccccc1NC1=NCCS1 | 55 to 57
Cc1[nH]nc2ncc(C(=O)O)cc12 | 337 to 339
COc1ccc(S(=O)(=O)Cl)cc1C(=O)O | 142 to 144
O=C1COc2ccc(C(=O)CCl)cc2N1 | 228 to 230

Structure (SMILES) | melting point [°C]
COc1ccc(OCCC(=O)O)cc1 | 104 to 106
CC(NS(=O)(=O)c1ccc(Cl)cc1)C(=O)O (centres undefined) | 136 to 138
O=C(CO)N1CCCC1 | 37 to 39
Cc1nn(C)c(C(F)(F)Cl)c1C(=O)O | 122 to 124
CC(C)(C)OC(=O)Nc1ccc(C(=O)O)c(Cl)c1 | 169 to 171
COc1ccccc1C(C)(C)C(=O)O | 121 to 123
O=C(CCl)NC1CCCCCCC1 | 82 to 84
COc1ccc2c(c1)NC(=O)CO2 | 157 to 159
CCN(C(C)=O)c1nc(CCl)cs1 | 82 to 84
CC(C)c1ccc(S(=O)(=O)Cc2ccoc2C(=O)O)cc1 | 156 to 158
NC(=NO)c1ccc(CN2CCOCC2)cc1 | 158 to 160
COc1cc(NC(=O)CCCl)cc(OC)c1OC | 117 to 119
Nc1cc(Cl)n[nH]1 | 93 to 95
CS(=O)(=O)c1ccc(NN)cc1 | 132 to 134
O=C(O)CN(Cc1ccccc1)Cc1ccccc1 | 195 to 197
Cn1nc(C(C)(C)C)c2cc(C(=O)O)cnc21 | 243 to 245
CC(NC(=O)c1ccc(Br)s1)C(=O)O (centres undefined) | 135 to 137
CCOc1cc(C#N)ccc1O | 75 to 77
COc1ccc(CCNC(=O)C(C)Cl)cc1OC (centres undefined) | 76 to 78
C=CCNC(=O)c1nc(C(=O)O)cs1 | 147 to 149
Cn1cc(-c2ncc(C=O)s2)cn1 | 141 to 143
COc1cc(OC)c(C(=O)NO)cc1OC | 187 to 189
O=C(CCl)NCc1ccc(F)cc1 | 92 to 95
NCC(O)COc1cccc(C(F)(F)F)c1 (centres undefined) | 66 to 68
COC(=O)COc1ccc(C(C)=O)cc1 | 85 to 87
CCCC1(C)NC(=O)NC1=O (centres undefined) | 123 to 125

Further lines, results first:

melting point [°C] | Structure (SMILES)
162 to 164 | O=C(CCl)c1cn(-c2cccc(C(F)(F)F)c2)nn1
188 to 190 | COc1ccc(-c2csc(N)n2)cc1Br
158 to 160 | CC(C)c1c(C(=O)O)nnn1-c1ccc(F)cc1F
140 to 142 | Cc1ccc(C)c(NC(N)=S)c1
60 to 62 | Cc1cc(Oc2ccccc2)ccc1N
122 to 124 | CCC(Nc1ccccc1)C(N)=O (centres undefined)
182 to 184 | CC(=O)c1cc(F)ccc1-n1ccnc1
104 to 106 | COc1ccc(Sc2ccc(N)cc2Cl)cc1
174 to 176 | Sc1nnc(Nc2ccccc2Cl)s1
144 to 146 | Nc1ccn(Cc2cn3ccccc3n2)n1
92 to 94 | O=C(NS(=O)(=O)c1cccs1)c1ccccc1
238 to 240 | COc1ccc(-n2ccnc2S)c(C)c1
300 to 302 | N#Cc1ccc(C=C2CCn3c2nc2cc(C(=O)O)ccc2c3=O)cc1
101 to 103 | COc1ccc(COc2ccc(C#N)cn2)cc1
167 to 169 | Nc1nnc(Cc2ccc(Cl)cc2)o1
160 to 162 | Cc1ccc(C(=O)NCC(=O)O)cc1C
152 to 154 | Cn1c(N)nc2cc(F)ccc21
168 to 170 | Cn1cnnc1Sc1ccc(N)cc1Cl
172 to 174 | O=C(CCl)N1CC=C(c2c[nH]c3ccccc23)CC1
252 to 254 | Cc1cc(C)c(-c2csc(N)n2)cc1C
158 to 160 | Cc1nnc(-c2ccccc2C(=O)O)o1
281 to 283 | Cc1ccc(S(=O)(=O)Cc2ccc(C(=O)O)cc2)cc1

melting point [°C] | Structure (SMILES)
83 to 85 | ClCc1nn(-c2ccccc2)c2c1CCC2
114 to 116 | Cn1cnnc1-c1ccccc1
105 to 107 | O=C(O)CCCc1nc(-c2ccccc2)no1
244 to 246 | CCC(NC(=O)c1ccccc1)C(N)=S (centres undefined)
194 to 196 | Nc1cc(-c2ccncc2)n[nH]1
216 to 218 | Nc1nc(-c2ccc(NC(=O)c3ccccc3)cc2)cs1
142 to 144 | NCc1ncc(-c2ccccc2)[nH]1
59 to 61 | N#CCOc1cc(F)ccc1N
94 to 96 | COc1ccc(C2=CCNC2)cc1
180 to 182 | Cc1cc(-c2nnc3ccccn23)ccc1N
168 to 170 | O=C(NCCc1ccc(O)cc1)c1ccc(Cl)cc1
124 to 126 | O=c1[nH]c(CCl)nc2scc(-c3ccc(Cl)cc3)c12
158 to 161 | Nn1c(S)nnc1Cc1ccccc1F
164 to 166 | Cc1cc(C)n(N)c(=O)c1C#N
125 to 127 | Nc1ccccc1C(=O)NCc1ccccc1
119 to 121 | CCOC(=O)c1sc(N)c(C(=O)c2ccccc2)c1C
65 to 67 | O=C(c1cccc(F)c1)c1cccc(Br)c1
221 to 223 | Nc1ccc2[nH]c(=O)sc2c1
117 to 119 | Cc1c(N)cccc1S(C)(=O)=O
90 to 92 | O=Cc1coc(-c2ccccc2)n1
259 to 261 | Cc1ccc2ncc(C(=O)O)c(=O)n2c1
251 to 253 | O=C(O)c1ccc(-c2ccc(Cl)cc2)cc1F

melting point [°C] | Structure (SMILES)
183 to 185 | O=C(O)c1ccccc1NCc1ccccc1Cl
118 to 120 | CC(NC(=O)c1ccccc1NC(=O)CCl)c1ccccc1 (centres undefined)
204 to 206 | O=c1cc(CO)nc2ccc(Br)cn12
55 to 57 | Cc1cc(C)cc(Oc2ccc(N)cc2)c1
293 to 295 | Sc1nc(-c2cccs2)c(-c2cccs2)[nH]1
186 to 188 | O=C1CSC(=Cc2nc3ccccc3s2)N1
213 to 215 | CC(C)(C)c1ccc(-c2ccc(C(=O)O)o2)cc1
141 to 143 | NCc1ccc(-c2ccn[nH]2)cc1
149 to 151 | O=Cc1cnc(-c2ccccn2)s1
105 to 107 | CC(C)NC(=O)c1cccc(CN)c1
93 to 95 | Cc1ccc(C(=O)Cc2ccccc2)cc1C
267 to 269 | N#Cc1ccc(-c2csc(N)n2)cc1
111 to 113 | O=Cc1ccc(-c2ccc(F)cc2)s1
211 to 213 | O=C(O)c1ccc(Cl)c(NS(=O)(=O)c2ccc(F)cc2)c1
43 to 45 | Brc1ccc(Cn2cccn2)cc1
111 to 113 | Nc1nc(-c2ccc(F)cc2)cs1
104 to 106 | CNCCCc1cc(-c2ccc(F)cc2)n[nH]1
113 to 115 | CC(Oc1ccc(C(=O)O)cn1)c1ccccc1 (centres undefined)
119 to 121 | Cc1ccccc1-c1nc(C(=O)O)cs1
95 to 97 | CC(C)c1nc(C=O)c2ccccn12
